According to US12351588B2, “Salt forms and solvates of Mcl-1 antagonists” (AMGEN INC., priority 2022, dated 2025):
Counter-ions that a name gives are not always drawn.

What was measured:
[1] = Solubility of AMG 176 Form 1 in water under neutral conditions; format: physicochemical
[2] = Moisture sorption (DVS, VTI vapor sorption analyzer); format: physicochemical; conditions: for weight gain (moisture sorption profile): by 95% relative humidity, 25° C.
Description: Moisture Sorption: Moisture sorption data was collected at 25° C. using a VTI vapor sorption analyzer. A sample size of approximately 4-10 mg was used in a standard platinum pan. Hygroscopicity was evaluated from 5 to 95% RH in increments of 5% RH. Data for adsorption and desorption cycles were collected. Equilibrium criteria were set at 0.001% weight change in 10 minute with a maximum equilibration time of 180 minutes.

solubility [1]	weight gain (moisture sorption profile) [2]	fate of the sorbed weight gain upon desorption ([2]; desorption after sorption to 95% relative humidity)	SMILES
< 0.1 µg/mL	–	–	CO[C@H]1/C=C/C[C@H](C)[C@@H](C)S(=O)(=O)NC(=O)c2ccc3c(c2)N(C[C@@H]2CC[C@H]21)C[C@@]1(CCCc2cc(Cl)ccc21)CO3 [AMG 176 Form 1]
–	about 1.2%	–	CO[C@H]1/C=C/C[C@H](C)[C@@H](C)S(=O)(=O)NC(=O)c2ccc3c(c2)N(C[C@@H]2CC[C@H]21)C[C@@]1(CCCc2cc(Cl)ccc21)CO3 [crystalline ammonium salt form of AMG 176]
–	about 5%	lost upon desorption	CO[C@H]1/C=C/C[C@H](C)[C@@H](C)S(=O)(=O)NC(=O)c2ccc3c(c2)N(C[C@@H]2CC[C@H]21)C[C@@]1(CCCc2cc(Cl)ccc21)CO3 [crystalline potassium salt hydrate form of AMG 176]
